The text below walks through data of patent publication US20220016102A1, “ER PROTEIN REGULATORS AND USE THEREOF” (ShanghaiTech University, priority 2018, published 2022).

In assay [1] the target is T1, ER protein (Homo sapiens, UniProt P03372).
T1 sequence (P03372 1-595): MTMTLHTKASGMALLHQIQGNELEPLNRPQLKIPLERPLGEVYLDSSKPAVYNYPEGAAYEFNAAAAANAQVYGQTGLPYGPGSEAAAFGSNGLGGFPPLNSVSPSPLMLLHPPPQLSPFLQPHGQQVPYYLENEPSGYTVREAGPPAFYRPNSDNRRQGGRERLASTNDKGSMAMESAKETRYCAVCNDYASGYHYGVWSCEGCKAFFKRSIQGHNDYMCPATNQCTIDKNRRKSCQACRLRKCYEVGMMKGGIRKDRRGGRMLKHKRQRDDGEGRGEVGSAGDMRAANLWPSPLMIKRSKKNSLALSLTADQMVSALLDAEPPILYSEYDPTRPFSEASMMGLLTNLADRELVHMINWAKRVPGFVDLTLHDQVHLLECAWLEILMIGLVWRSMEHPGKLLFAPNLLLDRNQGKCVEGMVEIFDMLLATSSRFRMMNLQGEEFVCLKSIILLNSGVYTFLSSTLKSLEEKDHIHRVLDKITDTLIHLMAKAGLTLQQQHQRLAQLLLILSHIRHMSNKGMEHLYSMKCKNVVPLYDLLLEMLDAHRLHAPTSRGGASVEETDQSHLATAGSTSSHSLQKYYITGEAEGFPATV
As to the kind of experiment: Western blotting analysis of ER protein degradation in MCF-7 cell line. The class given is cell-based. More on the design: western blotting detection of the level of intracellular ER protein; endogenous in cells. The following applies: MCF-7 cells, Western blot gray values vs DMSO control. The protocol: MCF-7 were cultured in ncubator with 5% CO2 at 37° C. Complete medium was EMEM supplemented with 10% FBS, 100 U/mL Penicillin and Streptomycin, and 0.77 μg/mL recombinant human insulin. […]
DC50 value (the drug concentration required for degrading proteins by 50%, abbreviated as DC50) reads method: comparing the gray values of the Western blotting bands for the drug treatment with the gray values of the Western blotting band for the DMSO control, and reading the drug concentration range corresponding to the gray value of the Western blotting bands for the drug treatment which is equal to half of the gray value of the Western blotting band for the DMSO control.
DC50 value could also be calculated as follows: using software ImageJ to quantify the gray values of the Western blotting bands for the drug treatment, fitting the relationship curve between drug concentrations and gray values, and from the fitted curve, calculating the drug concentration corresponding to half of the gray value of the Western blotting band for the DMSO control.

The target in assay [2] is T1, ER protein. In words: Western blotting analysis of ER protein degradation in T47D cell line. In kind it is cell-based. More on the design: western blotting detection of the level of intracellular ER protein; endogenous in cells; host or cells: T47D. The following applies: degradation of ER protein, T47D cells, drug treatment for 16 hours, Western blot gray values vs DMSO control; read-out: DC50 (nM)/T47Dcell line. Here is the method: T47D cells were cultured in an incubator with 5% CO2 at 37° C. Complete medium was RPMI1640 supplemented with 10% Foetal bovine serum (FBS), 100 U/ml Penicillin and Streptomycin, and 0.77 μg/mL recombinant human insulin. Western blotting analysis of T47D cell line: • Cells were plated in a 24-well plate at a cell seeding […] of 1.5×10^5 cells/mL, with 1 ml cell suspensions per well. • After 24 h the cells were adherent, and the cells in each well were treated with 1 μL a certain concentration of ER protein regulators of the present disclosure. […] Afterwards, the membranes were block by using the Blocking Buffer, and the antibody incubation and development were performed. (The above procedures were all based on the antibody product manual of the manufacturer) DC50 value (the drug concentration required for degrading proteins by 50%, abbreviated as DC50) reads method: comparing the gray values of the Western blotting bands for the drug treatment with the gray values of the Western blotting band for the DMSO control, and reading the drug concentration range corresponding to the gray value of the Western blotting bands for the drug treatment which is equal to half of the gray value of the Western blotting band for the DMSO control. DC50 value could also be calculated as follows: using software ImageJ to quantify the gray values of the Western blotting bands for the drug treatment, fitting the relationship curve between drug concentrations and gray values, and from the fitted curve, calculating the drug concentration corresponding to half of the gray value of the Western blotting band for the DMSO control.

The structures appear in SMILES notation.

Regarding `Cc1ncsc1-c1ccc(CNC(=O)[C@@H]2C[C@@H](O)CN2C(=O)[C@@H](NC(=O)CCCCCCC(=O)NCCOc2ccc(C(=C(CCCl)c3ccccc3)c3ccc(O)cc3)cc2)C(C)(C)C)cc1` [SIAIS208034, N1-(2-(4-(4-chloro-1-(4-hydroxyphenyl)-2-phenylbut-1-en-1-yl)phenoxy)ethyl)-N8-((S)-1-((2S,4R)-4-hydroxy-2-((4-(4-methylthiazol-5-yl)benzyl)carbamoyl)pyrrolidin-1-yl)-3,3-dimethyl-1-oxobutan-2-yl)octanediamide], the DC50 at ER protein [1] and at ER protein [2] was < 10 nM in each case. Turning to `Cc1ncsc1-c1ccc(CNC(=O)[C@@H]2C[C@@H](O)CN2C(=O)[C@@H](NC(=O)CCCCCCCCC(=O)NCCOc2ccc(/C(=C(/CCCl)c3ccccc3)c3ccc(O)cc3)cc2)C(C)(C)C)cc1` [SIAIS208036, N1-(2-(4-((Z)-4-chloro-1-(4-hydroxyphenyl)-2-phenylbut-1-en-1-yl)phenoxy)ethyl)-N10-((S)-1-((2S,4R)-4-hydroxy-2-((4-(4-methylthiazol-5-yl)benzyl)carbamoyl)pyrrolidin-1-yl)-3,3-dimethyl-1-oxobutan-2-yl)decanediamide], the DC50 at ER protein [1] and at ER protein [2] was < 10 nM each time. `Cc1ncsc1-c1ccc(CNC(=O)[C@@H]2C[C@@H](O)CN2C(=O)[C@@H](NC(=O)CCCC(=O)NCCOc2ccc(C(=C(CCCl)c3ccccc3)c3ccc(O)cc3)cc2)C(C)(C)C)cc1` [SIAIS208031, N1-(2-(4-(4-chloro-1-(4-hydroxyphenyl)-2-phenylbut-1-en-1-yl)phenoxy)ethyl)-N5-((S)-1-((2S,4R)-4-hydroxy-2-((4-(4-methylthiazol-5-yl)benzyl)carbamoyl)pyrrolidin-1-yl)-3,3-dimethyl-1-oxobutan-2-yl)glutaramide]: the DC50 on ER protein [1] and on ER protein [2] was < 100 nM in each case. As to `Cc1ncsc1-c1ccc(CNC(=O)[C@@H]2C[C@@H](O)CN2C(=O)[C@@H](NC(=O)CCOCCOCCC(=O)NCCOc2ccc(C(=C(CCCl)c3ccccc3)c3ccc(O)cc3)cc2)C(C)(C)C)cc1` [SIAIS208017, (2S,4R)-1-((S)-2-(tert-butyl)-16-(4-(4-chloro-1-(4-hydroxyphenyl)-2-phenylbut-1-en-1-yl)phenoxy)-4,13-dioxo-7,10-dioxa-3,14-diazahexadecanoyl)-4-hydroxy-N-(4-(4-methylthiazol-5-yl)benzyl)pyrrolidine-2-carboxamide], the figures for the DC50 at ER protein [1] and on ER protein [2] were < 100 nM and < 50 nM, respectively.

In the case of `Cc1ncsc1-c1ccc(CNC(=O)[C@@H]2C[C@@H](O)CN2C(=O)[C@@H](NC(=O)CCCCCC(=O)NCCOc2ccc(C(=C(CCCl)c3ccccc3)c3ccc(O)cc3)cc2)C(C)(C)C)cc1` [SIAIS208033, N1-(2-(4-(4-chloro-1-(4-hydroxyphenyl)-2-phenylbut-1-en-1-yl)phenoxy)ethyl)-N7-((S)-1-((2S,4R)-4-hydroxy-2-((4-(4-methylthiazol-5-yl)benzyl)carbamoyl)pyrrolidin-1-yl)-3,3-dimethyl-1-oxobutan-2-yl)heptanediamide], the DC50 on ER protein [1] and on ER protein [2] was < 10 nM each time. `Cc1ncsc1-c1ccc(CNC(=O)[C@@H]2C[C@@H](O)CN2C(=O)[C@@H](NC(=O)CCCCCCCCCCCCCCC(=O)NCCOc2ccc(C(=C(CCCl)c3ccccc3)c3ccc(O)cc3)cc2)C(C)(C)C)cc1` [SIAIS208039, N1-(2-(4-(4-chloro-1-(4-hydroxyphenyl)-2-phenylbut-1-en-1-yl)phenoxy)ethyl)-N16-((S)-1-((2S,4R)-4-hydroxy-2-((4-(4-methylthiazol-5-yl)benzyl)carbamoyl)pyrrolidin-1-yl)-3,3-dimethyl-1-oxobutan-2-yl)hexadecanediamide]: the results for the DC50 at ER protein [1] and on ER protein [2] were < 100 nM and < 50 nM, respectively.

`CCC(=C(c1ccc(O)cc1)c1ccc(OCCNC(=O)CCCCCCCCCC(=O)N[C@H](C(=O)N2C[C@H](O)C[C@H]2C(=O)NCc2ccc(-c3scnc3C)cc2)C(C)(C)C)cc1)c1ccc(O)cc1` [SIAIS208169, N1-(2-(4-(1,2-bis(4-hydroxyphenyl)but-1-en-1-yl)phenoxy)ethyl)-N11-((S)-1-((2S,4R)-4-hydroxy-2-((4-(4-methylthiazol-5-yl)benzyl)carbamoyl)pyrrolidin-1-yl)-3,3-dimethyl-1-oxobutan-2-yl)undecanediamide]: the DC50 at ER protein [2] was < 50 nM.

Turning to `Cc1ncsc1-c1ccc(CNC(=O)[C@@H]2C[C@@H](O)CN2C(=O)[C@@H](NC(=O)CCOCCOCCOCCOCCC(=O)N2CCN(CCOc3ccc(C(=C(CCCl)c4ccccc4)c4ccc(O)cc4)cc3)CC2)C(C)(C)C)cc1` [SIAIS251051, (2S,4R)-1-((S)-2-(tert-butyl)-19-(4-(2-(4-(4-chloro-1-(4-hydroxyphenyl)-2-phenylbut-1-en-1-yl)phenoxy)ethyl)piperazin-1-yl)-4,19-dioxo-7,10,13,16-tetraoxa-3-azanonadecanoyl)-4-hydroxy-N-(4-(4-methylthiazol-5-yl)benzyl)pyrrolidine-2-carboxamide], on ER protein [2], the DC50 is < 50 nM. In the case of `Cc1ncsc1-c1ccc(CNC(=O)[C@@H]2C[C@@H](O)CN2C(=O)[C@@H](NC(=O)CCc2ccc(CCC(=O)N(C)CCOc3ccc(/C(=C(/CCCl)c4ccccc4)c4ccccc4)cc3)cc2)C(C)(C)C)cc1` [SIAIS208125, (2S,4R)-1-((S)-2-(3-(4-(3-((2-(4-((Z)-4-chloro-1,2-diphenylbut-1-en-1-yl)phenoxy)ethyl)(methyl)amino)-3-oxopropyl)phenyl)propanamido)-3,3-dimethylbutanoyl)-4-hydroxy-N-(4-(4-methylthiazol-5-yl)benzyl)pyrrolidine-2-carboxamide], the DC50 on ER protein [2] was < 200 nM. With `Cc1ncsc1-c1ccc(CNC(=O)[C@@H]2C[C@@H](O)CN2C(=O)[C@@H](NC(=O)CCCC(=O)N2CCN(CCOc3ccc(C(=C(CCCl)c4ccccc4)c4ccc(O)cc4)cc3)CC2)C(C)(C)C)cc1` [SIAIS251042, (2S,4R)-1-((S)-2-(5-(4-(2-(4-(4-chloro-1-(4-hydroxyphenyl)-2-phenylbut-1-en-1-yl)phenoxy)ethyl)piperazin-1-yl)-5-oxopentanamido)-3,3-dimethylbutanoyl)-4-hydroxy-N-(4-(4-methylthiazol-5-yl)benzyl)pyrrolidine-2-carboxamide], the DC50 on ER protein [2] is < 50 nM. Take `Cc1ncsc1-c1ccc(CNC(=O)[C@@H]2C[C@@H](O)CN2C(=O)[C@@H](NC(=O)CCN2CCN(CCC(=O)NCCOc3ccc(C(=C(CCCl)c4ccccc4)c4ccc(O)cc4)cc3)CC2)C(C)(C)C)cc1` [SIAIS208107, (2S,4R)-1-((S)-2-(3-(4-(3-((2-(4-(4-chloro-1-(4-hydroxyphenyl)-2-phenylbut-1-en-1-yl)phenoxy)ethyl)amino)-3-oxopropyl)piperazin-1-yl)propanamido)-3,3-dimethylbutanoyl)-4-hydroxy-N-(4-(4-methylthiazol-5-yl)benzyl)pyrrolidine-2-carboxamide]: the DC50 on ER protein [2] is < 200 nM. Turning to `Cc1ncsc1-c1ccc(CNC(=O)[C@@H]2C[C@@H](O)CN2C(=O)[C@@H](NC(=O)CCOCCOCCC(=O)N2CCN(CCOc3ccc(C(=C(CCCl)c4ccccc4)c4ccc(O)cc4)cc3)CC2)C(C)(C)C)cc1` [SIAIS251049, (2S,4R)-1-((S)-2-(3-(2-(3-(4-(2-(4-(4-chloro-1-(4-hydroxyphenyl)-2-phenylbut-1-en-1-yl)phenoxy)ethyl)piperazin-1-yl)-3-oxopropoxy)ethoxy)propanamido)-3,3-dimethylbutanoyl)-4-hydroxy-N-(4-(4-methylthiazol-5-yl)benzyl)pyrrolidine-2-carboxamide], the DC50 at ER protein [2] was < 50 nM.
